Measurements taken from paper PMC8775902, “Bifunctional Opioid/Melanocortin Peptidomimetics for Use in Neuropathic Pain: Variation in the Type and Length of the Linker Connecting the Two Pharmacophores” (International Journal of Molecular Sciences, 2022).
“Also recorded” adds a separate entry of the source.

Columns and labels:
Format in all cases: in vivo
[1] = test system: mice subjected to CCI (neuropathic pain); experiment: Von Frey test in CCI-exposed mice (neuropathic pain, allodynia); details: for ED50 (CL) Mice Subjected to CCI (Neuropathic Pain) Von Frey (Allodynia): 7–14 days after CCI, i.t. administration, 95% confidence limits
Procedure: (§1) The antinociceptive properties of the peptidomimetics 1–9 were assessed in two types of pain models. The first one included naive mice (acute pain), and the second one included mice exposed to chronic constriction injury (CCI, neuropathic pain model). In the latter of the models, two types of stimuli (mechanical pressure and low temperature) were considered. […] In naive mice, the tail-flick test was used to evaluate the analgesic effect (acute pain model). In CCI-exposed mice, hypersensitivity to mechanical and thermal stimuli was measured by von Frey and cold-plate tests, respectively.
(§2) The surgical procedure was performed according to Bennett and Xie. Under isoflurane anesthesia, an incision was made below the mouse’s right hipbone, and the sciatic nerve was exposed. Three ligatures with 4/0 silk thread were made around the nerve distal to the sciatic notch with 1 mm spacing, until a brief twitch in the respective hind limb was observed. After 7 days of recovery, mice were tested to assess the development of neuropathic pain behavior. […] Main experiments were conducted on days 7–14 after CCI surgical procedure.
Mechanical sensitivity to non-noxious stimuli was measured by applying a set of calibrated nylon monofilaments in increasing value (0.6–6 g; Stoelting, Wood Dale, IL, USA) on a tested hind paw plantar surface, until a behavioral response was observed. Response considered as pain behavior included rapid paw withdrawal, shaking, and licking. In the von Frey test, results are expressed as pressure (g) applied with a calibrated plastic filament to the midplantar surface of the mouse’s injured hind paw (cut-off: 6 g), which elicited a foot withdrawal response.
(§3) The behavioral data are presented as the percentage of the maximal possible antinociceptive effect (% MPE ± SEM), which was calculated according to the following equation: % MPE = [(TL − BL)/(CUT-OFF − BL)] × 100%, where BL is the baseline latency, and TL is the latency obtained after drug injection. The results of the experiments were statistically evaluated using one-way analysis of variance (ANOVA). The differences between the treatment groups throughout the study were further analyzed with Bonferroni post hoc tests. The Litchefield and Wilcoxon method was used to calculate the ED50 value (a dose necessary to produce a 50% response) with 95% confidence limits on quantal data.

naive mice (acute pain) = experiment: Tail-flick test in naive mice (acute pain model); details: for analgesic effect in naive mice (acute pain), in words / ED50 Naive Mice (Acute Pain) Tail-Flick, class symbol: i.t.; for ED50 (CL) Naive Mice (Acute Pain) Tail-Flick: i.t. administration, 95% confidence limits
Procedure: as §1
The tail-flick test was performed with use of Tail-Flick Analgesic Meter (Ugo Basile, Comerio, Italy) to evaluate the pain threshold to a thermal stimulus. During the procedure, an animal was placed on the apparatus surface and gently held by the experimenter. A beam of light was focused on a dorsal tail surface, approximately at 1 cm from the tail tip. When the animal flicked its tail, the timer stopped, and the recorded time (latency) was measured. The cut-off time to protect tissue damage was 9 s.
as §3

[2] = test system: mice subjected to CCI (neuropathic pain); experiment: Cold plate test in CCI-exposed mice (neuropathic pain, hyperalgesia); details: 7–14 days after CCI, i.t. administration, 95% confidence limits
Procedure: as §1, §2
Sensitivity to noxious thermal stimuli was assessed with usage of Cold/Hot Plate Analgesia Meter, (Ugo Basile, Comerio, Italy). The temperature of the plate was kept at 2 °C, and the cut-off latency was 30 s. The mice were placed on the cold plate, and the time until the hind paw was lifted was recorded, which was considered as a reaction to noxious cold stimulus.
as §3

Substance: ENK-4AMB-SHU [Compound 5]
- ED50 (CL) Mice Subjected to CCI (Neuropathic Pain) Von Frey (Allodynia) [1]: 0.02 (0.005–0.5) nmol
- analgesic effect in naive mice (acute pain), in words (naive mice (acute pain)): lack of analgesic effect
- ED50 (CL) Mice Subjected to CCI (Neuropathic Pain) Cold Plate (Hyperalgesia) [2]: 0.16 (0.1–0.2) nmol

Substance: ENK-4APhAc-SHU [Compound 6]
- ED50 (CL) Mice Subjected to CCI (Neuropathic Pain) Von Frey (Allodynia) [1]: 0.02 (0.0002–1.03) nmol
- analgesic effect in naive mice (acute pain), in words (naive mice (acute pain)): some analgesic activity
- ED50 (CL) Naive Mice (Acute Pain) Tail-Flick (naive mice (acute pain)): 42 (21–85) nmol
- ED50 (CL) Mice Subjected to CCI (Neuropathic Pain) Cold Plate (Hyperalgesia) [2]: 0.02 (0.0005–1.2) nmol

Substance: ENK-(Pro-Gly)2-SHU [Compound 8]
- analgesic effect in CCI-exposed mice, in words ([1]; CCI mice, von Frey and cold plate tests, i.t.): any analgesic effect was not observed; also recorded: very little if any activity
- ED50 (CL) Naive Mice (Acute Pain) Tail-Flick (naive mice (acute pain)): 5 (0.4–60.3) nmol

Substance: ENK-Pro-Gly-SHU [Compound 7]
- ED50 (CL) Mice Subjected to CCI (Neuropathic Pain) Von Frey (Allodynia) [1]: 0.4 (0.3–0.6) nmol
- ED50 Naive Mice (Acute Pain) Tail-Flick, class symbol (naive mice (acute pain)): # (weak analgesic effects, poor dose dependency, ED50 cannot be calculated)
- analgesic effect in naive mice (acute pain), in words (naive mice (acute pain)): impossible to calculate ED50 due to weak analgesic effect and poor dose dependency
- ED50 (CL) Mice Subjected to CCI (Neuropathic Pain) Cold Plate (Hyperalgesia) [2]: 0.16 (0.07–0.34) nmol

Substance: [Dmt^1]ENK-Ahx-SHU [Compound 9]
- ED50 (CL) Mice Subjected to CCI (Neuropathic Pain) Von Frey (Allodynia) [1]: 0.003 (0.000003–3.45) nmol
- ED50 Naive Mice (Acute Pain) Tail-Flick, class symbol (naive mice (acute pain)): # (weak analgesic effects, poor dose dependency, ED50 cannot be calculated)
- analgesic effect in naive mice (acute pain), in words (naive mice (acute pain)): impossible to calculate ED50 due to weak analgesic effect and poor dose dependency
- ED50 (CL) Mice Subjected to CCI (Neuropathic Pain) Cold Plate (Hyperalgesia) [2]: 0.009 (0.005–0.01) nmol
